For one assay, the target named is full-length human BTK (Homo sapiens (Human), UniProt Q06187). As to the kind of experiment: Assay A: microfluidic off-chip mobility shift assay against BTK enzyme. The assay is classed as biochemical. As for the experimental part:
Assay A: Microfluidic Off-Chip Mobility Shift Assay Protocol for Potency Assessment Against BTK Enzyme
The protocol below describes microfluidic, off-chip mobility shift kinase assay to measure inherent potency of compounds against BTK enzyme.
5 uL of enzyme buffer and 7.5 uL of ATP/kinKDR peptide substrate mix were added to Matrix (#115304) 384-well, sterile, polypropylene plates (Thermo Fisher Scientific, Hudson, N.H.) with 125 nL of serially diluted compounds prepared in 100% DMSO, and incubated for 90 min. at 27° C. Following the incubation period, reactions were stopped by adding 60 uL stop buffer consisting of 100 mM HEPES, pH 7.5, 0.015% Brij-35 (30%), 0.277% Coating Reagent #3 (Caliper Life Sciences, Mountain View, Calif.), 5% DMSO. Stopped reactions were monitored at −2 PSI, −3000 V/−700 V in a LabChip 3000 plate reader from Caliper Life Sciences, a PerkinElmer Company (Hopkinton, Mass.), and the activity was measured by off-chip mobility shift assay measuring the charge/mass difference between substrate and product resulting from peptide phosphorilation. IC50 and efficacy were determined by plotting log [Inhibitor] vs. % Activity in GeneData Screener (Basel. Switzerland).

For assay [1], the target named is BTK C481S (His-TEV-hsBTK(328-659)(C481S)) (Homo sapiens (Human), UniProt Q06187, C481S). As to the kind of experiment: Assay B: microfluidic off-chip mobility shift assay against BTK C481S enzyme. The assay is classed as biochemical. To be noted: BTK C481S mutant. Here is the method:
The mechanics of the assay platform are described by the vendor (PerkinElmer, Hopkinton, Mass.) on their website at the following URL: http://caliperls.com.
5 uL of enzyme buffer and 7.5 uL of ATP/KinKDR peptide substrate mix were added to Matrix (#4315) 384-well, sterile, flat-bottom polypropylene plates (Thermo Fisher Scientific, Hudson, N.H.) with 125 nL of serially diluted compounds prepared in 100% DMSO, and incubated for 90 min. at 25° C. Following the incubation period, reactions were terminated by adding 65 uL quench buffer consisting of 100 mM HEPES, pH 7.5, 0.015% Brij-35 (30%), 0.277% Coating Reagent #3 (PerkinElmer, Mountain View, Calif.), 5% DMSO. Terminated reactions were monitored at −2 PSI, −3000 V/−700 Volts in a LabChip 3000 plate reader from Caliper Life Sciences, a PerkinElmer Company (Hopkinton, Mass.), and the activity was quantified by laser-induced fluorescence measuring the charge/mass difference between substrate and product resulting from peptide phosphorylation. IC50 and efficacy were determined by plotting log [Inhibitor] vs. % Activity in GeneData Screener (Basel, Switzerland).

full-length human BTK, sequence (Q06187 whole entry): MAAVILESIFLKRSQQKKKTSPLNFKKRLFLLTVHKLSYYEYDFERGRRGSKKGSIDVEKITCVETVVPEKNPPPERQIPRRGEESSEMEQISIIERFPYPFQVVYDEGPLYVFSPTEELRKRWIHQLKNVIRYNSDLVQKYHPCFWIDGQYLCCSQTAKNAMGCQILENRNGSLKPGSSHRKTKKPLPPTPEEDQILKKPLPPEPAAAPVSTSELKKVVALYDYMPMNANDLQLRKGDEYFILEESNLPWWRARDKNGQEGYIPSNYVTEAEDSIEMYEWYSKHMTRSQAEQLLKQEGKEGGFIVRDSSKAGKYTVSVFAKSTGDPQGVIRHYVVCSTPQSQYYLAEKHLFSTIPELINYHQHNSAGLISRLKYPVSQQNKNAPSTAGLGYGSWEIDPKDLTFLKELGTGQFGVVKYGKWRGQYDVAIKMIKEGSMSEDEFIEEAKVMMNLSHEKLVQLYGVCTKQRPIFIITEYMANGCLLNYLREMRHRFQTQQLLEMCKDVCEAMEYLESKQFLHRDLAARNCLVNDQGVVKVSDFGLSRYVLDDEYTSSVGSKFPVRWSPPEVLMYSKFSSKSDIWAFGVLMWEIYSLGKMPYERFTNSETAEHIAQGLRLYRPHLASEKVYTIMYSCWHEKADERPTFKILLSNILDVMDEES
BTK C481S (His-TEV-hsBTK(328-659)(C481S)), sequence (Q06187 328-659 C481S): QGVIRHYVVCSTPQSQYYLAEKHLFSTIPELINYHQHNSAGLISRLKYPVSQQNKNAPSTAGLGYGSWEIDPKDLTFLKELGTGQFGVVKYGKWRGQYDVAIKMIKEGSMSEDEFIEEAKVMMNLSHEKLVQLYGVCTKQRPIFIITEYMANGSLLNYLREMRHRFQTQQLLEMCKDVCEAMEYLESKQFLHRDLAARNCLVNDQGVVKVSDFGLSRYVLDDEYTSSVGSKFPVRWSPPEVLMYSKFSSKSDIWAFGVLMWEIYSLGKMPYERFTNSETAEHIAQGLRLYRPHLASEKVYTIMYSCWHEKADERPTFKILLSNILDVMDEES

In general, IC50 refers to the point on the concentration scale where inhibition reaches its midpoint. As to “5-tert-Butyl-[1,3,4]oxadiazole-2-carboxylic acid 2-fluoro-4-{2-[1-(2-morpholin-4-yl-ethyl)-1H-pyrazol-4-yl]-3H-imidazo[4,5-b]pyridin-7-yl}-benzylamide [Example 120]”, the IC50 (on full-length human BTK; in assay [1]) was under 0.1 µM each time.
As to `Cn1cc(-c2nc3c(-c4cccc(CNC(=O)c5noc(C(C)(C)C)n5)c4)ccnc3[nH]2)cn1` [Example 87, 5-tert-Butyl-N-([3-[2-(1-methyl-1H-pyrazol-4-yl)-3H-imidazo[4,5-b]pyridin-7-yl]phenyl]methyl)-1,2,4-oxadiazole-3-carboxamide], the half-maximal inhibitory concentration (IC50) at full-length human BTK lay in the range of 1 to 5 µM.
On the same count and under the same terms, next, `Cc1ccc(-n2ccn(-c3cccc(-c4ccnc5[nH]c(-c6ccc(C(=O)N7CCOCC7)cc6)nc45)c3CO)c2=O)cc1` [Example 96, 1-[2-(Hydroxymethyl)-3-(2-[4-[(morpholin-4-yl)carbonyl]phenyl]-3H-imidazo[4,5-b]pyridin-7-yl)phenyl]-3-(4-methylphenyl)-2,3-dihydro-1H-imidazol-2-one]: 0.1 to 1 µM; `Cn1cc(-c2nc3c(-c4ccc(C5(NC(=O)c6nnc(C(C)(C)C)o6)CC5)cc4)ccnc3[nH]2)cn1` [Example 97, 5-tert-Butyl-[1,3,4]oxadiazole-2-carboxylic acid (1-{4-[2-(1-methyl-1H-pyrazol-4-yl)-3H-imidazo[4,5-b]pyridin-7-yl]-phenyl}-cyclopropyl)-amide]: under 0.1 µM; `CC(C)(C)OC(=O)N1CC=C(c2nc3c(-c4ccc(CNC(=O)c5noc(C(C)(C)C)n5)c(F)c4)ccnc3[nH]2)CC1` [Example 137, tert-butyl 4-(7-(4-((5-(tert-butyl)-1,2,4-oxadiazole-3-carboxamido)methyl)-3-fluorophenyl)-3H-imidazo[4,5-b]pyridin-2-yl)-5,6-dihydropyridine-1(2H)-carboxylate]: under 0.1 µM.
The same measure, in the same setting: with `Cn1cc(-c2nc3c(-c4ccc5c(c4)CCN(C(=O)c4nc(C(C)(C)C)no4)C5)ccnc3[nH]2)cn1` [Example 154, (3-tert-Butyl-[1,2,4]oxadiazol-5-yl)-{6-[2-(1-methyl-1H-pyrazol-4-yl)-3H-imidazo[4,5-b]pyridin-7-yl]-3,4-dihydro-1H-isoquinolin-2-yl}-methanone] the figure was over 5 µM; with `CC(C)(C)c1noc(C(=O)NCc2ccc(-c3ccnc4[nH]c(-c5ccc(N6CCCCC6)cn5)nc34)cc2F)n1` [Example 157, 3-tert-Butyl-N-[(2-fluoro-4-[2-[5-(piperidin-1-yl)pyridin-2-yl]-3H-imidazo[4,5-b]pyridin-7-yl]phenyl)methyl]-1,2,4-oxadiazole-5-carboxamide], under 0.1 µM.
The same measure, in the same setting: next, `COc1ccc(-c2nc3c(-c4ccc(CNC(=O)c5nnc(C(C)(C)C)o5)c(F)c4)ccnc3[nH]2)nc1` [Example 158, 5-tert-butyl-N-([2-fluoro-4-[2-(5-methoxypyridin-2-yl)-3H-imidazo[4,5-b]pyridin-7-yl]phenyl]methyl)-1,3,4-oxadiazole-2-carboxamide]: under 0.1 µM; `CC(C)(C)c1nc(C(=O)NCc2ccc(-c3ccnc4[nH]c(-c5ccc(N6CCC(F)CC6)cn5)nc34)cc2F)no1` [Example 167, 5-tert-butyl-N-[(2-fluoro-4-[2-[5-(4-fluoropiperidin-1-yl)pyridin-2-yl]-3H-imidazo[4,5-b]pyridin-7-yl]phenyl)methyl]-1,2,4-oxadiazole-3-carboxamide]: under 0.1 µM.
Regarding `CN1CCC(c2ccc(-c3nc4c(-c5ccc(CNC(=O)c6noc(C(C)(C)C)n6)c(F)c5)ccnc4[nH]3)nc2)CC1` [Example 169, 5-tert-butyl-N-[(2-fluoro-4-[2-[5-(1-methylpiperidin-4-yl)pyridin-2-yl]-3H-imidazo[4,5-b]pyridin-7-yl]phenyl)methyl]-1,2,4-oxadiazole-3-carboxamide], at full-length human BTK, the IC50 was under 0.1 µM.
On the same count and under the same terms, next, `Cc1cc(-c2ccnc3[nH]c(-c4ccc(OCC(O)CO)cn4)nc23)ccc1CN1CCOc2cc(C3CC3)cc(F)c2C1=O` (stereo not drawn) [Example 170, 8-cyclopropyl-4-[(4-[2-[5-(2,3-dihydroxypropoxy)pyridin-2-yl]-3H-imidazo[4,5-b]pyridin-7-yl]-2-methylphenyl)methyl]-6-fluoro-2,3,4,5-tetrahydro-1,4-benzoxazepin-5-one]: under 0.1 µM; `Cn1cc(-c2nc3c(-c4ccc(CN5CCOc6cc(C7CC7)cc(F)c6C5=O)nc4)ccnc3[nH]2)cn1` [Example 171, 8-cyclopropyl-6-fluoro-4-([5-[2-(1-methyl-1H-pyrazol-4-yl)-3H-imidazo[4,5-b]pyridin-7-yl]pyridin-2-yl]methyl)-2,3,4,5-tetrahydro-1,4-benzoxazepin-5-one]: under 0.1 µM; `CN(C)c1ccc(-c2nc3c(-c4ccc(CNC(=O)c5nnc(C(C)(C)C)o5)c(F)c4)ccnc3[nH]2)nc1` [Example 172, 5-tert-butyl-N-[(4-[2-[5-(dimethylamino)pyridin-2-yl]-3H-imidazo[4,5-b]pyridin-7-yl]-2-fluorophenyl)methyl]-1,3,4-oxadiazole-2-carboxamide]: under 0.1 µM.
The same measure, in the same setting: next, `Cn1cc(-c2nc3c(-c4ccc(CNCc5cccnc5)c(F)c4)ccnc3[nH]2)cn1` [Example 173, N-(2-fluoro-4-(2-(1-methyl-1H-pyrazol-4-yl)-3H-imidazo[4,5-b]pyridin-7-yl)benzyl)-1-(pyridin-3-yl)methanamine]: over 5 µM; `Cn1cc(-c2nc3c(-c4ccc(CNCc5ccc(F)c(F)c5)c(F)c4)ccnc3[nH]2)cn1` [Example 174, N-(3,4-difluorobenzyl)-1-(2-fluoro-4-(2-(1-methyl-1H-pyrazol-4-yl)-3H-imidazo[4,5-b]pyridin-7-yl)phenyl)methanamine]: over 5 µM; `Cc1ccc(S(=O)(=O)NCc2ccc(-c3ccnc4[nH]c(-c5cnn(C)c5)nc34)cc2F)cc1` [Example 175, N-(2-fluoro-4-(2-(1-methyl-1H-pyrazol-4-yl)-3H-imidazo[4,5-b]pyridin-7-yl)benzyl)-4-methylbenzenesulfonamide]: over 5 µM.
As to `Cn1cc(-c2nc3c(-c4ccc(CNS(C)(=O)=O)c(F)c4)ccnc3[nH]2)cn1` [Example 176, N-(2-fluoro-4-(2-(1-methyl-1H-pyrazol-4-yl)-3H-imidazo[4,5-b]pyridin-7-yl)benzyl)methanesulfonamide], at full-length human BTK, the IC50 was over 5 µM.
For `Cn1cc(-c2nc3c(-c4ccc(CNS(=O)(=O)CC5(CC#N)CC5)c(F)c4)ccnc3[nH]2)cn1` [Example 177, 1-(1-(cyanomethyl)cyclopropyl)-N-(2-fluoro-4-(2-(1-methyl-1H-pyrazol-4-yl)-3H-imidazo[4,5-b]pyridin-7-yl)benzyl)methanesulfonamide], the IC50 on full-length human BTK lay in the range of 1 to 5 µM.
Turning to `Cn1cc(-c2nc3c(-c4ccc(CNS(=O)(=O)CCC5CCC5)c(F)c4)ccnc3[nH]2)cn1` [Example 178, 2-cyclobutyl-N-(2-fluoro-4-(2-(1-methyl-1H-pyrazol-4-yl)-3H-imidazo[4,5-b]pyridin-7-yl)benzyl)ethanesulfonamide], the IC50 at full-length human BTK fell in the range of 1 to 5 µM.
On the same count and under the same terms, with `Cn1cc(-c2nc3c(-c4ccc(CNS(=O)(=O)CC5CCCS(=O)(=O)C5)c(F)c4)ccnc3[nH]2)cn1` (stereo not drawn) [Example 179, 1-(1,1-dioxidotetrahydro-2H-thiopyran-3-yl)-N-(2-fluoro-4-(2-(1-methyl-1H-pyrazol-4-yl)-3H-imidazo[4,5-b]pyridin-7-yl)benzyl)methanesulfonamide] the figure was over 5 µM; with `Cn1cc(-c2nc3c(-c4ccc(CNCc5cccc(C(C)(C)C)c5)c(F)c4)ccnc3[nH]2)cn1` [Example 180, N-(3-(tert-butyl)benzyl)-1-(2-fluoro-4-(2-(1-methyl-1H-pyrazol-4-yl)-3H-imidazo[4,5-b]pyridin-7-yl)phenyl)methanamine], over 5 µM.
Consider `Cn1cc(-c2nc3c(-c4ccc(CNCc5ccc(C(C)(C)C)cc5)c(F)c4)ccnc3[nH]2)cn1` [Example 181, N-(4-(tert-butyl)benzyl)-1-(2-fluoro-4-(2-(1-methyl-1H-pyrazol-4-yl)-3H-imidazo[4,5-b]pyridin-7-yl)phenyl)methanamine], for which the IC50 on full-length human BTK was over 5 µM.
The same measure, in the same setting: next, `NCc1ccc(-c2ccnc3[nH]c(-c4cnn(C5CCC5)c4)nc23)cc1F` [Example 188, 4-[2-(1-Cyclobutyl-1H-pyrazol-4-yl)-3H-imidazo[4,5-b]pyridin-7-yl]-2-fluoro-benzylamine]: 1 to 5 µM.

These data come from patent US11098041B2 (Merck Patent GmbH, priority 2014, dated 2021).
